Measured values: publication PMC6858373 (Scientific Reports, 2019)
Read-outs that look alike come from different tables or passages of the source.

How the values were obtained:
[1] = biological target: full-length P. pyralis luciferase (Photinus pyralis, UniProt P08659, K549A/L550V/N119G/N50D/S548I); assay type: cell-based
[2] = test system: Clone V cells
[3] = biological target: T1, FGF14:Nav1.6 C-tail complex (Homo sapiens, UniProt Q92915+Q9UQD0); experiment: Split-luciferase complementation assay (LCA) in Clone V double stable HEK293 cells; assay type: cell-based; conditions: for Split Luciferase Assay % Lum Set 1 / Split Luciferase Assay Z-score Set 1: biological replicate Set 1; for Split Luciferase Assay % Lum Set 1 / Split Luciferase Assay %Lum Set 2: normalized to on-plate 0.3% DMSO controls (n=16 per plate); for Split Luciferase Assay %Lum Set 2 / Split Luciferase Assay Z-score Set 2: biological replicate Set 2; for Split Luciferase Assay Z-score Set 1 / Split Luciferase Assay Z-score Set 2: normalized to on-plate 0.3% DMSO controls; for Split Luciferase Assay %Lum Avg: average of Set 1 and Set 2, normalized to 0.3% DMSO controls
T1 construct: polymerase chain reaction (PCR) amplification of the FGF14 open reading frame (nt 1–855); C-terminal fragment of Nav1.6 (amino acids 1763–1976) fused with CD4ΔC-tail (amino acids 1–395); expressed in transfected cells

[4] = CC_NCI screening, full-length luciferase counter-screen luminescence, normalized to on-plate 0.3% DMSO controls
[5] = CC_NCI screening, full-length luciferase counter-screen, normalized to on-plate 0.3% DMSO controls
[6] = CC_NCI screening, LCA luminescence
[7] = CC_NCI screening, normalized to on-plate 0.3% DMSO controls

Chain of full-length P. pyralis luciferase (P08659 whole entry N50D/N119G/S548I/K549A/L550V, looked up): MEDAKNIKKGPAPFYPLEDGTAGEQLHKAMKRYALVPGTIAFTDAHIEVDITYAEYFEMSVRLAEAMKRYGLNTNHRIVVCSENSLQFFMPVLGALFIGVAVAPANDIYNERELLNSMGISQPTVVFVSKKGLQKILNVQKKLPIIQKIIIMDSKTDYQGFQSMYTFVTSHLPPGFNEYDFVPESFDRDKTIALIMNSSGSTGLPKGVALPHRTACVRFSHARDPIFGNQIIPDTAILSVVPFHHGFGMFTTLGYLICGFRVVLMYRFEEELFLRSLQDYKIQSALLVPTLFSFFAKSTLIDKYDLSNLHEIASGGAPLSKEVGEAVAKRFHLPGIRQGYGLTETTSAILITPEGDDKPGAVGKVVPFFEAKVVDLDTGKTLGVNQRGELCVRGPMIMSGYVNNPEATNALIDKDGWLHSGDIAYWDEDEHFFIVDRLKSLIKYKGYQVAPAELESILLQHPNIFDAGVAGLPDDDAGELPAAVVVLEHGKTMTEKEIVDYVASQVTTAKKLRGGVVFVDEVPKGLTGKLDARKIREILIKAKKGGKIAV
T1 sequence (Q92915 1-252 isoform Q92915-2): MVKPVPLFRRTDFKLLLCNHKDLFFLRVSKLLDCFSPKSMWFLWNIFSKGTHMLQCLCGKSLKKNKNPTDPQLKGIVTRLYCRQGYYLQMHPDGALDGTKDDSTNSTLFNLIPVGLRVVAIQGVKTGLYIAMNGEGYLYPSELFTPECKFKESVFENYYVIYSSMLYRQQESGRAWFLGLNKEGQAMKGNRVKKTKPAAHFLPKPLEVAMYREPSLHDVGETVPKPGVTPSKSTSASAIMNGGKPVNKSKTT
T1 sequence (Q9UQD0 1763-1976 limits assumed): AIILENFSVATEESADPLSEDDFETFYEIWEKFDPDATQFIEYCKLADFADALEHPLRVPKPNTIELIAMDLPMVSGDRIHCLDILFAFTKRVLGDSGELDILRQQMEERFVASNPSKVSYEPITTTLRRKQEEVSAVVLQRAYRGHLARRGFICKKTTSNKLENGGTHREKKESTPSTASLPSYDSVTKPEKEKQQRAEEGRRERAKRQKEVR

Compound | Luciferase Assay % Lum [1, 4] | Luciferase Assay Z-score [1, 5] | Toxicity Assay % Fluor [2] | Toxicity Assay Z-score [2] | Split Luciferase Assay % Lum Set 1 [3, 6] | Split Luciferase Assay %Lum Set 2 [3, 6] | Split Luciferase Assay Z-score Set 1 ([3]; CC_NCI screening, LCA) | Split Luciferase Assay Z-score Set 2 ([3]; CC_NCI screening, LCA) | Split Luciferase Assay %Lum Avg ([3]; CC_NCI screening) | Toxicity Assay % Fluor ([2]; human, 16 h, 30 µM) | Toxicity Assay Z-score ([2]; human, 16 h, 30 µM) | further results
C=CCNC1=C2C[C@@H](C)C[C@H](OC)[C@H](O)[C@@H](C)/C=C(\C)[C@H](OC(N)=O)[C@@H](OC)/C=C\C=C(/C)C(=O)NC(=CC1=O)C2=O [Compound 17-AAG] | 80.45% | -2.50 | 88.49% | -1.61 | 45.98% | 41.61% | -4.37 | -4.75 | 43.80% |  |  | 
COc1cc([C@@H]2c3cc4c(cc3[C@@H](O[C@@H]3O[C@@H]5CO[C@@H](C)O[C@H]5[C@H](O)[C@H]3O)[C@H]3COC(=O)[C@H]23)OCO4)cc(OC)c1O [Etoposide] | 103.75% | 0.48 |  |  | 77.51% | 72.82% | -1.82 | -2.21 | 75.17% | 88.49% | -1.61 | 
CC(C)C[C@H](NC(=O)[C@H](Cc1ccccc1)NC(=O)c1cnccn1)B(O)O [Bortezomib] | 83.42% | -2.12 | 93.30% | -0.94 | 89.47% | 117.56% | -0.85 | 1.43 | 103.51% |  |  | 
OCCn1cc(-c2cnc3nnn(Cc4ccc5ncccc5c4)c3n2)cn1 [PF-04217903] | 111.09% | 1.42 | 99.86% | -0.02 | 90.56% | 78.02% | -0.76 | -1.79 | 84.29% |  |  | 
NS(=O)(=O)c1nn2cc(-c3ccccc3)nc2s1 [AEG 3482] |  |  |  |  |  |  |  |  |  |  |  | Luciferase Assay % Lum (full-length luciferase counter-screen) [1, 7]: 93.96%; Luciferase Assay Z-score (full-length luciferase counter-screen) [1, 7]: -0.77; Toxicity Assay % Fluor (CTB cell viability fluorescence) [2]: 105.28%; Toxicity Assay Z-score (CTB cell viability) [2]: 0.74; Split Luciferase Assay Z-score Set 1 ([3]; CC_NCI screening): 1.78; Split Luciferase Assay % Lum Set 1 ([3]; CC_NCI screening): 122.08%; Split Luciferase Assay Z-score Set 2 ([3]; CC_NCI screening): 1.09; Split Luciferase Assay %Lum Set 2 ([3]; CC_NCI screening): 113.39%; Split Luciferase Assay %Lum Avg [3]: 117.74%
CCCCCCCCCCCCSc1nc2c([nH]1)c(=O)n(C)c(=O)n2C | 103.16% | 0.40 | 93.89% | -0.85 | 112.30% | 118.60% | 0.99 | 1.51 | 115.45% |  |  | 
Cc1cn(-c2cc(NC(=O)c3ccc(C)c(Nc4nccc(-c5cccnc5)n4)c3)cc(C(F)(F)F)c2)cn1 [NILOTINIB] | 102.54% | 0.33 | 88.70% | -1.58 | 109.04% | 122.76% | 0.73 | 1.85 | 115.90% |  |  | 
CS(=O)(=O)c1ccc(C(=O)Nc2ccc(Cl)c(-c3ccccn3)c2)c(Cl)c1 [Vismodegib, reference compound] | 90.92% | -1.16 |  |  | 175.35% | 147.72% | 6.09 | 3.88 | 161.54% | 93.24% | -0.95 | Z-score (LCA primary screening) ([3]; 30 µM, 384-well, average of primary screening (n = 2), vs on-plate 0.3% DMSO): 4.99; EMax (% Luminescence) ([3]; agonists, Clone V cells, 384-well, normalized to DMSO): 161.54 % Luminescence; EC50 ([3]; estimated, 8-point dose response 0.25-30 µM, n = 4 per concentration, library compounds, read-out: EC50): 1910 nM
Cl.Cn1c(CCCC(=O)O)nc2cc(N(CCCl)CCCl)ccc21 [Bendamustine hydrochloride] | 101.61% | 0.21 | 87.62% | -1.73 | 111.21% | 127.96% | 0.91 | 2.27 | 119.58% |  |  | 
COc1cc2c(Oc3ccc4[nH]c(C)cc4c3F)ncnc2cc1OCCCN1CCCC1 [CEDIRANIB] | 80.88% | -2.45 |  |  | 69.90% | 57.22% | -2.43 | -3.48 | 63.56% | 86.10% | -1.94 | 
O=C1NC(=O)c2c1c1c3ccccc3n3c1c1c2c2ccccc2n1C1CCC3O1 [SB 218078] |  |  |  |  |  |  |  |  |  |  |  | Luciferase Assay % Lum (full-length luciferase counter-screen) [1, 7]: 92.40%; Luciferase Assay Z-score (full-length luciferase counter-screen) [1, 7]: -0.97; Toxicity Assay % Fluor (CTB cell viability fluorescence) [2]: 109.07%; Toxicity Assay Z-score (CTB cell viability) [2]: 1.27; Split Luciferase Assay Z-score Set 1 ([3]; CC_NCI screening): -1.55; Split Luciferase Assay % Lum Set 1 ([3]; CC_NCI screening): 80.77%; Split Luciferase Assay Z-score Set 2 ([3]; CC_NCI screening): -1.79; Split Luciferase Assay %Lum Set 2 ([3]; CC_NCI screening): 78.02%; Split Luciferase Assay %Lum Avg [3]: 79.40%
Nc1nc(F)nc2c1ncn2[C@@H]1O[C@H](COP(=O)(O)O)[C@@H](O)[C@@H]1O [Fludarabine phosphate] | 119.94% | 2.55 |  |  | 112.30% | 119.64% | 0.99 | 1.60 | 115.97% | 95.37% | -0.65 | 
COc1cccc(-c2cc(=O)c3ccccc3o2)c1N [PD 98059] | 90.17% | -1.26 | 88.34% | -1.63 | 103.60% | 106.11% | 0.29 | 0.50 | 104.86% |  |  | 
Bleomycin sulfate | 94.27% | -0.73 | 80.17% | -2.77 | 125.34% | 143.56% | 2.05 | 3.54 | 134.45% |  |  | 
Cc1ccc(-c2cc(C(F)(F)F)nn2-c2ccc(S(N)(=O)=O)cc2)cc1 [Celecoxib] | 60.07% | -5.11 |  |  | 43.81% | 44.73% | -4.54 | -4.50 | 44.27% | 88.16% | -1.66 | 
LE 135 | 97.72% | -0.29 | 98.37% | -0.23 | 44.90% | 74.90% | -4.45 | -2.04 | 59.90% |  |  | 
Cn1c(=O)n(-c2ccc(C(C)(C)C#N)cc2)c2c3cc(-c4cnc5ccccc5c4)ccc3ncc21 [BEZ 235] | 98.68% | -0.17 |  |  | 91.64% | 100.91% | -0.68 | 0.07 | 96.28% | 90.66% | -1.31 | 
CN(C)C(=N)N=C(N)N [METFORMIN] |  |  |  |  | 117.73% | 114.43% | 1.43 | 1.17 | 116.08% | 91.06% | -1.25 | Luciferase Assay % Lum [1]: 96.22%; Luciferase Assay Z-score [1]: -0.48
